Measurements reported in patent US11180483B2, “Substituted reverse pyrimidine Bmi-1 inhibitors” (PTC Therapeutics, Inc., priority 2012, dated 2021).

Tested on: Bmi-1
Experiment: Sandwich ELISA Assay (Bmi-1 ELISA) in HT-1080 cells
Type: cell-based
Outline: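 HT-1080 cells exposed to compound in 0.5% final DMSO for 40-48 h at 37 °C, then lysed. Bmi-1 was quantified by sandwich ELISA: mouse monoclonal capture, rabbit anti-Bmi-1 detection, HRP anti-rabbit and TMB. Read at OD450 (OD570 reference) against a recombinant GST-Bmi-1 standard curve (0-8000 pg/mL).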

SMILES | EC50 [nM]
CCc1nc2ccccc2n1-c1nc(N)c(F)c(Nc2ccc(OC(F)F)cc2)n1 [Cpd 123, N-[4-(difluoromethoxy)phenyl]-2-(2-ethyl-1H-benzimidazol-1-yl)-5-fluoropyrimidine-4,6-diamine] | 1 to 10
CCc1nc2ccccc2n1-c1nc(N)c(F)c(Nc2ccc(OC(F)F)c(F)c2)n1 [Cpd 124, N-[4-(difluoromethoxy)-3-fluorophenyl]-2-(2-ethyl-1H-benzimidazol-1-yl)-5-fluoropyrimidine-4,6-diamine] | 10 to 100
Cc1nc2cc(F)c(F)cc2n1-c1nc(N)c(F)c(Nc2ccc(C(F)(F)F)cc2)n1 [Cpd 125, 2-(5,6-difluoro-2-methyl-1H-benzimidazol-1-yl)-5-fluoro-N-[4-(trifluoromethyl)phenyl]pyrimidine-4,6-diamine] | 100 to 3000
Cc1nc2cc(F)c(F)cc2n1-c1nc(N)c(F)c(Nc2ccc(OC(F)F)c(F)c2)n1 [Cpd 126, N-[4-(difluoromethoxy)-3-fluorophenyl]-2-(5,6-difluoro-2-methyl-1H-benzimidazol-1-yl)-5-fluoropyrimidine-4,6-diamine] | 10 to 100
Cc1nc2c(F)cc(F)cc2n1-c1nc(N)c(F)c(Nc2ccc(C(F)(F)F)cc2)n1 [Cpd 127, 2-(4,6-difluoro-2-methyl-1H-benzimidazol-1-yl)-5-fluoro-N-[4-(trifluoromethyl)phenyl]pyrimidine-4,6-diamine] | 10 to 100
Cc1nc2c(F)cc(F)cc2n1-c1nc(N)c(F)c(Nc2ccc(OC(F)F)c(F)c2)n1 [Cpd 128, N-[4-(difluoromethoxy)-3-fluorophenyl]-2-(4,6-difluoro-2-methyl-1H-benzimidazol-1-yl)-5-fluoropyrimidine-4,6-diamine] | 10 to 100
CCc1nc2c(F)cc(F)cc2n1-c1nc(N)c(F)c(Nc2ccc(C(F)(F)F)cc2)n1 [Cpd 129, 2-(2-ethyl-4,6-difluoro-1H-benzimidazol-1-yl)-5-fluoro-N-[4-(trifluoromethyl)phenyl]pyrimidine-4,6-diamine] | 10 to 100
CCc1nc2c(F)cc(F)cc2n1-c1nc(N)c(F)c(Nc2ccc(OC(F)F)c(F)c2)n1 [Cpd 130, N-[4-(difluoromethoxy)-3-fluorophenyl]-2-(2-ethyl-4,6-difluoro-1H-benzimidazol-1-yl)-5-fluoropyrimidine-4,6-diamine] | 10 to 100
Cc1nc2c(F)cc(F)cc2n1-c1nc(N)c(F)c(Nc2ccc(OC(F)F)cc2)n1 [Cpd 131, N-[4-(difluoromethoxy)phenyl]-2-(4,6-difluoro-2-methyl-1H-benzimidazol-1-yl)-5-fluoropyrimidine-4,6-diamine] | 10 to 100
CCc1nc2c(F)cc(F)cc2n1-c1nc(N)c(F)c(Nc2ccc(OC(F)F)cc2)n1 [Cpd 132, N-[4-(difluoromethoxy)phenyl]-2-(2-ethyl-4,6-difluoro-1H-benzimidazol-1-yl)-5-fluoropyrimidine-4,6-diamine] | 10 to 100
Cc1nc2cc(F)c(F)cc2n1-c1nc(N)c(F)c(Nc2ccc(OC(F)F)cc2)n1 [Cpd 133, N-[4-(difluoromethoxy)phenyl]-2-(5,6-difluoro-2-methyl-1H-benzimidazol-1-yl)-5-fluoropyrimidine-4,6-diamine] | 10 to 100
Cc1nc2c(F)cccc2n1-c1nc(N)c(F)c(Nc2ccc(C(F)(F)F)cc2)n1 [Cpd 134, 5-fluoro-2-(4-fluoro-2-methyl-1H-benzimidazol-1-yl)-N-[4-(trifluoromethyl)phenyl]pyrimidine-4,6-diamine] | 10 to 100
Cc1nc2c(F)cccc2n1-c1nc(N)c(F)c(Nc2ccc(OC(F)F)cc2)n1 [Cpd 135, N-[4-(difluoromethoxy)phenyl]-5-fluoro-2-(4-fluoro-2-methyl-1H-benzimidazol-1-yl)pyrimidine-4,6-diamine] | 10 to 100
Cc1nc2c(F)cccc2n1-c1nc(N)c(F)c(Nc2ccc(OC(F)F)c(F)c2)n1 [Cpd 136, N-[4-(difluoromethoxy)-3-fluorophenyl]-5-fluoro-2-(4-fluoro-2-methyl-1H-benzimidazol-1-yl)pyrimidine-4,6-diamine] | 10 to 100
Cc1nc2ncccc2n1-c1nc(N)c(F)c(Nc2ccc(C(F)(F)F)cc2)n1 [Cpd 137, 5-fluoro-2-(2-methyl-1H-imidazo[4,5-b]pyridin-1-yl)-N-[4-(trifluoromethyl]phenyl]pyrimidine-4,6-diamine] | 10 to 100
Cc1nc2ncccc2n1-c1nc(N)c(F)c(Nc2ccc(OC(F)F)cc2)n1 [Cpd 138, N-[4-(difluoromethoxy)phenyl]-5-fluoro-2-(2-methyl-1H-imidazo[4,5-b]pyridin-1-yl)pyrimidine-4,6-diamine] | 10 to 100
Cc1nc2ncccc2n1-c1nc(N)c(F)c(Nc2ccc(OC(F)F)c(F)c2)n1 [Cpd 139, N-[4-(difluoromethoxy)-3-fluorophenyl]-5-fluoro-2-(2-methyl-1H-imidazo[4,5-b]pyridin-1-yl)pyrimidine-4,6-diamine] | 100 to 3000
Nc1nc(-n2c(C3CC3)nc3c(F)cccc32)nc(Nc2ccc(C(F)(F)F)cc2)c1F [Cpd 140, 2-(2-cyclopropyl-4-fluoro-1H-benzimidazol-1-yl)-5-fluoro-N-[4-(trifluoromethyl]phenyl]pyrimidine-4,6-diamine] | 10 to 100
Nc1nc(-n2c(C3CC3)nc3c(F)cccc32)nc(Nc2ccc(OC(F)F)cc2)c1F [Cpd 141, 2-(2-cyclopropyl-4-fluoro-1H-benzimidazol-1-yl)-N-[4-(difluoromethoxy)phenyl]-5-fluoropyrimidine-4,6-diamine] | 10 to 100
Nc1nc(-n2c(C3CC3)nc3c(F)cccc32)nc(Nc2ccc(OC(F)F)c(F)c2)c1F [Cpd 142, 2-(2-cyclopropyl-4-fluoro-1H-benzimidazol-1-yl)-N-[4-(difluoromethoxy)-3-fluorophenyl]-5-fluoropyrimidine-4,6-diamine] | 10 to 100
CSc1ccc(Nc2cc(N)nc(-n3c(C)nc4ccccc43)n2)cc1 [Cpd 146, 2-(2-methyl-1H-benzimidazol-1-yl)-N-[4-(methylsulfanyl]phenyl]pyrimidine-4,6-diamine] | 10 to 100
CC1(c2nc3ccccc3n2-c2nc(N)cc(Nc3ccc(C(F)(F)F)cc3)n2)CC1 [Cpd 147, 2-[2-(1-methylcyclopropyl)-1H-benzimidazol-1-yl]-N-[4-(trifluoromethyl]phenyl]pyrimidine-4,6-diamine] | 100 to 3000
CC1(c2nc3ccccc3n2-c2nc(N)cc(Nc3ccc(OC(F)F)cc3)n2)CC1 [Cpd 148, N-[4-(difluoromethoxy)phenyl]-2-[2-(1-methylcyclopropyl)-1H-benzimidazol-1-yl]pyrimidine-4,6-diamine] | 100 to 3000
Cc1nn2ccccc2c1-c1nc(N)cc(Nc2ccc(C(F)(F)F)cc2)n1 [Cpd 154, 2-(2-methylpyrazolo[1,5-a]pyridin-3-yl)-N-[4-(trifluoromethyl]phenyl]pyrimidine-4,6-diamine] | 100 to 3000

Results, then the compound that gave them:

EC50 [nM] | SMILES
10 to 100 | Nc1nc(-n2c(C3CC3)nc3ncc(F)cc32)nc(Nc2ccc(OC(F)F)cc2)c1F [Cpd 155, 2-(2-cyclopropyl-6-fluoro-1H-imidazo[4,5-b]pyridin-1-yl)-N-[4-(difluoromethoxy)phenyl]-5-fluoropyrimidine-4,6-diamine]
1 to 10 | CCc1nc2ccccc2n1-c1nc(N)cc(Nc2ccc(OC(F)F)cc2)n1 [Cpd 156, N-[4-(difluoromethoxy)phenyl]-2-(2-ethyl-1H-benzimidazol-1-yl)pyrimidine-4,6-diamine]
10 to 100 | CCc1nc2ccccc2n1-c1nc(N)cc(Nc2ccc(OC(F)F)c(F)c2)n1 [Cpd 157, N-[4-(difluoromethoxy)-3-fluorophenyl]-2-(2-ethyl-1H-benzimidazol-1-yl)pyrimidine-4,6-diamine]
100 to 3000 | Cc1nc2cc(Cl)ccc2n1-c1nc(N)c(F)c(Nc2ccc(C(F)(F)F)cc2)n1 [Cpd 158, 2-(5-chloro-2-methyl-1H-benzimidazol-1-yl)-5-fluoro-N-[4-(trifluoromethyl)phenyl]pyrimidine-4,6-diamine]
100 to 3000 | Cc1nc2cc(Cl)ccc2n1-c1nc(N)c(F)c(Nc2ccc(OC(F)F)cc2)n1 [Cpd 159, 2-(5-chloro-2-methyl-1H-benzimidazol-1-yl)-N-[4-(difluoromethoxy)phenyl]-5-fluoropyrimidine-4,6-diamine]
10 to 100 | Cc1nc2ccc(Cl)cc2n1-c1nc(N)c(F)c(Nc2ccc(C(F)(F)F)cc2)n1 [Cpd 160, 2-(6-chloro-2-methyl-1H-benzimidazol-1-yl)-5-fluoro-N-[4-(trifluoromethyl)phenyl]pyrimidine-4,6-diamine]
10 to 100 | Cc1nc2ccc(Cl)cc2n1-c1nc(N)c(F)c(Nc2ccc(OC(F)F)cc2)n1 [Cpd 161, 2-(6-chloro-2-methyl-1H-benzimidazol-1-yl)-N-[4-(difluoromethoxy)phenyl]-5-fluoropyrimidine-4,6-diamine]
10 to 100 | CCc1nc2cc(F)ccc2n1-c1nc(N)c(F)c(Nc2ccc(C(F)(F)F)cc2)n1 [Cpd 162, 2-(2-ethyl-5-fluoro-1H-benzimidazol-1-yl)-5-fluoro-N-[4-(trifluoromethyl)phenyl]pyrimidine-4,6-diamine]
10 to 100 | CCc1nc2cc(F)ccc2n1-c1nc(N)c(F)c(Nc2ccc(OC(F)F)cc2)n1 [Cpd 163, N-[4-(difluoromethoxy)phenyl]-2-(2-ethyl-5-fluoro-1H-benzimidazol-1-yl)-5-fluoropyrimidine-4,6-diamine]
10 to 100 | CCc1nc2ccc(F)cc2n1-c1nc(N)c(F)c(Nc2ccc(C(F)(F)F)cc2)n1 [Cpd 164, 2-(2-ethyl-6-fluoro-1H-benzimidazol-1-yl)-5-fluoro-N-[4-(trifluoromethyl)phenyl]pyrimidine-4,6-diamine]
1 to 10 | CCc1nc2ccc(F)cc2n1-c1nc(N)c(F)c(Nc2ccc(OC(F)F)cc2)n1 [Cpd 165, N-[4-(difluoromethoxy)phenyl]-2-(2-ethyl-6-fluoro-1H-benzimidazol-1-yl)-5-fluoropyrimidine-4,6-diamine]
100 to 3000 | Cc1nc2ccccc2n1-c1nc(N)c(Cl)c(Nc2ccc(C(F)(F)F)cc2)n1 [Cpd 166, 5-chloro-2-(2-methyl-1H-benzimidazol-1-yl)-N-[4-(trifluoromethyl)phenyl]pyrimidine-4,6-diamine]
